Columns and labels:
Assay in all cases: Eurofins DiscoverX SAFETYscan off-target panel
Format in all cases: cell-based
OPRM1 = OPRM1 (Homo sapiens, UniProt P35372)
OPRD1 = OPRD1 (Homo sapiens, UniProt P41143)
HTR2A = HTR2A (Homo sapiens, UniProt P28223)
androgen receptor (AR) = molecular target: T1, androgen receptor (AR) (Homo sapiens, UniProt P10275)
T1 sequence (P10275 1-920): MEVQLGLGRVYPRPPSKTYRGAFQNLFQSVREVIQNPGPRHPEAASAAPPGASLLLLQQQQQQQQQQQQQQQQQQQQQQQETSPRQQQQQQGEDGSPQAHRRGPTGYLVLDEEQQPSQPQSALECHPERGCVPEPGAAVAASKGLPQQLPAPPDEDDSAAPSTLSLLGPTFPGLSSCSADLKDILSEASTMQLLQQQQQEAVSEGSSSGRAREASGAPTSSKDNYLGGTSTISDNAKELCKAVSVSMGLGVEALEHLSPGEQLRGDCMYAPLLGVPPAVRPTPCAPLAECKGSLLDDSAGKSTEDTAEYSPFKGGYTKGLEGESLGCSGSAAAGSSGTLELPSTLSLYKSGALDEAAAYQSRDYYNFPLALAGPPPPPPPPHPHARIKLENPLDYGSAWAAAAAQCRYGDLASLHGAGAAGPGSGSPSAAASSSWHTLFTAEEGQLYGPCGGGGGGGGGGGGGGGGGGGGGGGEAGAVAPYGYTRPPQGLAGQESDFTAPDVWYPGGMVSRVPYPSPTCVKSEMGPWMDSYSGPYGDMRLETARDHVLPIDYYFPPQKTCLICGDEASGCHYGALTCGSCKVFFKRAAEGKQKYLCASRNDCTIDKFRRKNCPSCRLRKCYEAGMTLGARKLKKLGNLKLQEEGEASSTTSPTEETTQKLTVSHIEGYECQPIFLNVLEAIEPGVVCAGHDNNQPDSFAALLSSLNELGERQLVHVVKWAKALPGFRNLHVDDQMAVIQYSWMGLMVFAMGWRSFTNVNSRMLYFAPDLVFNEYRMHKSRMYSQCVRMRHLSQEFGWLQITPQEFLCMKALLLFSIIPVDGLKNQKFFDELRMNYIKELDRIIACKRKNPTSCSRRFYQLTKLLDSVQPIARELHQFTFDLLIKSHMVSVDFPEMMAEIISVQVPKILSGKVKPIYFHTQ

HTR1A = molecular target: T2, HTR1A (Homo sapiens, UniProt P08908)
T2 sequence (P08908 1-422): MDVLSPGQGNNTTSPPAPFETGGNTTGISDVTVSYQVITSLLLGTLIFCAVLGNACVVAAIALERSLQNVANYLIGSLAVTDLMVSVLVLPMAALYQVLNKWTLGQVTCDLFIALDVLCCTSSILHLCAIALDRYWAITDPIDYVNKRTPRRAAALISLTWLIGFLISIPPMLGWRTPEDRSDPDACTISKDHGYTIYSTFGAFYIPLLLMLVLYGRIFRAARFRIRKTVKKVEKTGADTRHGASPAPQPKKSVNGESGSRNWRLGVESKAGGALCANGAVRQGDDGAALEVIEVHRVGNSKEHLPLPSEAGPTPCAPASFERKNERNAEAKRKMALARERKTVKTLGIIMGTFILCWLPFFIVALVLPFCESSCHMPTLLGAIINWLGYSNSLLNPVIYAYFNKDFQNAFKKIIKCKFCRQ

ADRA2A = molecular target: T3, ADRA2A (Homo sapiens, UniProt P08913)
T3 sequence (P08913 1-465): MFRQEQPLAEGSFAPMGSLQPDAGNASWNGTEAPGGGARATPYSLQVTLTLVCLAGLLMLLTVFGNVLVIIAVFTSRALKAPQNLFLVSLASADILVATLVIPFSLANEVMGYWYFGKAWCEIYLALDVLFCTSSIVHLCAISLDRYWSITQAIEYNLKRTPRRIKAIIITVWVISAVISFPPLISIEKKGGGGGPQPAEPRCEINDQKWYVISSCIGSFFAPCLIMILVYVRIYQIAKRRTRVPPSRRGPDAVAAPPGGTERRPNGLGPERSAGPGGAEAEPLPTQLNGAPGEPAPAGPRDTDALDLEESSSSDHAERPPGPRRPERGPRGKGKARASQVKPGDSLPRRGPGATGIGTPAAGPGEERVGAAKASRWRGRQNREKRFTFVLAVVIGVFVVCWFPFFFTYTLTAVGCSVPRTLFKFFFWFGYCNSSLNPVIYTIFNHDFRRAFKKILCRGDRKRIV

Chain of HTR2A (P28223 whole entry): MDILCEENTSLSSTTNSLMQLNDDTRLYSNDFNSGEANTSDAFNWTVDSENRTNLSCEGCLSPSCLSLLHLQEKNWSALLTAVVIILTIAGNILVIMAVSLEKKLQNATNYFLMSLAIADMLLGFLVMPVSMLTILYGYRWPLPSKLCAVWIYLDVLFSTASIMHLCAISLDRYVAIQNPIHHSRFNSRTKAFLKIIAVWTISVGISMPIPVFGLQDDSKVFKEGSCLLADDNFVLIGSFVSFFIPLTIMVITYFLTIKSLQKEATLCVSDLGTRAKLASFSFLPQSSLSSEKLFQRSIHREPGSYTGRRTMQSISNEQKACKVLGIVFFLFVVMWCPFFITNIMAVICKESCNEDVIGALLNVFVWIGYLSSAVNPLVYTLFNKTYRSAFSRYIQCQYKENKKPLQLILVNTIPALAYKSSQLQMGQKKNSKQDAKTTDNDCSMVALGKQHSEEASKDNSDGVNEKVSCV
Chain of OPRM1 (P35372 whole entry): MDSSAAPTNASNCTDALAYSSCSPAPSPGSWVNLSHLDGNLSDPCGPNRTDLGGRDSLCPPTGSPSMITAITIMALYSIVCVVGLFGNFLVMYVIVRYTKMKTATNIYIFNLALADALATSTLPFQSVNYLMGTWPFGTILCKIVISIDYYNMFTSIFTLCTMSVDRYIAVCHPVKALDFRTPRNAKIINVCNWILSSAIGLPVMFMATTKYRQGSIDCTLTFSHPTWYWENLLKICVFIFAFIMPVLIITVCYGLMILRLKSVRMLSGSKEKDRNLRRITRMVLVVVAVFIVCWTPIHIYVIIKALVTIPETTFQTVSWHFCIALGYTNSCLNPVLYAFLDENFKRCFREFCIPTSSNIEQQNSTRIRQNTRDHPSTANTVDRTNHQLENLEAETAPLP
Chain of OPRD1 (P41143 whole entry): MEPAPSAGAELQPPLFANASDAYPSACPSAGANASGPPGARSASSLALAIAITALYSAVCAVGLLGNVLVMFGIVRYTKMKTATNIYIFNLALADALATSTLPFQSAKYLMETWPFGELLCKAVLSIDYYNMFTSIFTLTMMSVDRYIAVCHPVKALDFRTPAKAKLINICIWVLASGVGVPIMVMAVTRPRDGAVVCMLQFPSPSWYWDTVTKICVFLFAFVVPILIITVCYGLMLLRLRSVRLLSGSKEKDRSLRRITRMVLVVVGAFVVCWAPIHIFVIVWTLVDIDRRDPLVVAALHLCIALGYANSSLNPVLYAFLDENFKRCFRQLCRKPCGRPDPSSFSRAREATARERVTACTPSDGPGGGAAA

Row | SMILES | IC50 (OPRM1) [nM] | EC50 (OPRD1) [nM] | IC50 (HTR2A) [nM] | IC50 (androgen receptor (AR)) [nM] | IC50 (HTR1A) [nM] | IC50 (ADRA2A) [nM]
1 | CC(=O)c1ccc2c(c1)[C@@H]1C=CC[C@@H]1[C@H](c1cc3c(cc1Br)OCO3)N2 (racemic) [LNS8801, 1-[(3aS,4R,9bR)-4-(6-bromo-1,3-benzodioxol-5-yl)-3a,4,5,9b-tetrahydro-3H-cyclopenta[c]quinolin-8-yl] ethanone] | 3500 | 870 | 8200 |  |  | 
2 | CC(=O)c1ccc2c(c1)C1C=CCC1C(c1cc3c(cc1Br)OCO3)N2 (racemic) [LNS8812] |  |  |  | 4800 | 2000 | 2000

Reference: article PMC11969138, “LNS8801: An Enantiomerically Pure Agonist of the G Protein–Coupled Estrogen Receptor Suitable for Clinical Development” (Cancer Research Communications, 2025)
